# According to patent publication US20110150836A1, “METHODS OF TREATING HBV AND HCV INFECTION” (Gilead Sciences, Inc., priority 2009, published 2011):
# Columns and labels:
# [1] = tested on: human peripheral blood mononuclear cells (PBMCs); test: Induction of cytokines in human PBMCs in vitro (Luminex/Upstate multi-plex); format: cell-based; conditions: 24 hours; for IFN-α concentration / IFN-β concentration / IFN-γ concentration / IL1-α concentration / IL1-β concentration / IL-1ra concentration / IL-6 concentration / IL-10 concentration / IL-12 concentration / TNF-α concentration: PBMC supernatant
# Experimental: Frozen human PBMCs were thawed and used to seed the wells of 96 well plates (7.5×10^5cells/well in 190 μL/well culture medium (CM)). The cells were incubated for 1 hour at 37° C. at a 5% CO2. […] The plates were incubated at 37° C., 5% CO2, for 24 hours, then centrifuged at 1200 rpm for 10 minutes. After centrifugation the supernatant was collected and stored at −80° C. The supernatant was assayed using Luminex and Upstate multi-plex kits for the presence of various cytokines.
# interferon-alpha [2] = test: Induction of interferon alpha in cynomolgus monkeys, single oral dose (serum ELISA); format: in vivo; conditions: serum at 4 and 8 hours
# Experimental: A single dose of Compound A was administered orally to cynomolgus monkeys (3 or more animals per dose group) and serum was collected at 4 hours and 8 hours after dosing. Serum samples were analyzed for levels of interferon-alpha by ELISA. Prior to dosing, serum interferon-alpha levels were near or below the level of detection in each animal. The limit of quantitation (LOQ) for IFN-a based on cynomolgus monkey IFN-a standard was 625 pg/mL.
# interferon-alpha [3] = test: Induction of interferon alpha in cynomolgus monkeys, multiple oral doses once per day (serum ELISA); format: in vivo
# Experimental: Additionally, multiple doses of Compound A were administered to Cynomolgus monkeys, and the concentrations of interferon alpha were measured. Compound A was dosed orally once per day to Cynomolgus monkeys (3 animals per dose group), and serum was collected on Days 1, 7 and 15 at 4 and 8 hours after dosing. Serum samples were analyzed for levels of interferon-alpha by ELISA. Prior to dosing on Day 1, serum interferon-alpha levels were below the level of detection in each animal.
smiles,measurement,setting,value
"CCCCOc1nc(N)c2nc(O)n(Cc3cccc(CN4CCCC4)c3)c2n1 [Compound A, 6-amino-2-butoxy-9-(3-(pyrrolidin-1-ylmethyl)benzyl)-9H-purin-8-ol]",production of cytokines in human PBMCs in vitro,"[1]; 0.1, 0.01, 0.001 μM",stimulated the production of a range of cytokines
same,IFN-α concentration,[1]; Compound A 0.001 μM,208 pg/mL
same,IFN-β concentration,[1]; Compound A 0.001 μM,324 pg/mL
same,IFN-γ concentration,[1]; Compound A 0.001 μM,2099 pg/mL
same,IL1-α concentration,[1]; Compound A 0.001 μM,7 pg/mL
same,IL1-β concentration,[1]; Compound A 0.001 μM,138 pg/mL
same,IL-1ra concentration,[1]; Compound A 0.001 μM,3216 pg/mL
same,IL-6 concentration,[1]; Compound A 0.001 μM,27664 pg/mL
same,IL-10 concentration,[1]; Compound A 0.001 μM,735 pg/mL
same,IL-12 concentration,[1]; Compound A 0.001 μM,61 pg/mL
same,TNF-α concentration,[1]; Compound A 0.001 μM,82 pg/mL
same,IFN-α concentration,[1]; Compound A 0.01 μM,122 pg/mL
same,IFN-β concentration,[1]; Compound A 0.01 μM,170 pg/mL
same,IFN-γ concentration,[1]; Compound A 0.01 μM,4578 pg/mL
same,IL1-α concentration,[1]; Compound A 0.01 μM,94 pg/mL
same,IL1-β concentration,[1]; Compound A 0.01 μM,752 pg/mL
same,IL-1ra concentration,[1]; Compound A 0.01 μM,4530 pg/mL
same,IL-6 concentration,[1]; Compound A 0.01 μM,66284 pg/mL
same,IL-10 concentration,[1]; Compound A 0.01 μM,992 pg/mL
same,IL-12 concentration,[1]; Compound A 0.01 μM,386 pg/mL
same,TNF-α concentration,[1]; Compound A 0.01 μM,1449 pg/mL
same,IFN-α concentration,[1]; Compound A 0.1 μM,80 pg/mL
same,IFN-β concentration,[1]; Compound A 0.1 μM,97 pg/mL
same,IFN-γ concentration,[1]; Compound A 0.1 μM,5400 pg/mL
same,IL1-α concentration,[1]; Compound A 0.1 μM,280 pg/mL
same,IL1-β concentration,[1]; Compound A 0.1 μM,2836 pg/mL
same,IL-1ra concentration,[1]; Compound A 0.1 μM,4934 pg/mL
same,IL-6 concentration,[1]; Compound A 0.1 μM,93554 pg/mL
same,IL-10 concentration,[1]; Compound A 0.1 μM,1523 pg/mL
same,IL-12 concentration,[1]; Compound A 0.1 μM,773 pg/mL
same,TNF-α concentration,[1]; Compound A 0.1 μM,3665 pg/mL
same,Average peak serum Interferon-alpha levels (Mean ± standard deviation),interferon-alpha [2]; single oral dose 0.005 mg/kg,7829 ± 9192 pg/mL
same,Average peak serum Interferon-alpha levels (Mean ± standard deviation),interferon-alpha [2]; single oral dose 0.02 mg/kg,26148 ± 13873 pg/mL
same,Average peak serum Interferon-alpha levels (Mean ± standard deviation),interferon-alpha [2]; single oral dose 0.05 mg/kg,42741 ± 29223 pg/mL
same,Average peak serum Interferon-alpha levels (Mean ± standard deviation),interferon-alpha [2]; single oral dose 2.5 mg/kg,772923 ± 281529 pg/mL
same,Average peak serum Interferon-alpha levels on designated day,"interferon-alpha [3]; oral 0.005 mg/kg once per day, Day 1",3233 pg/mL
same,Average peak serum Interferon-alpha levels on designated day,"interferon-alpha [3]; oral 0.005 mg/kg once per day, Day 7",6709 pg/mL
same,Average peak serum Interferon-alpha levels on designated day,"interferon-alpha [3]; oral 0.005 mg/kg once per day, Day 15",24053 pg/mL
same,Average peak serum Interferon-alpha levels on designated day,"interferon-alpha [3]; oral 0.05 mg/kg once per day, Day 1",87570 pg/mL
same,Average peak serum Interferon-alpha levels on designated day,"interferon-alpha [3]; oral 0.05 mg/kg once per day, Day 7",12175 pg/mL
same,Average peak serum Interferon-alpha levels on designated day,"interferon-alpha [3]; oral 0.05 mg/kg once per day, Day 15",42648 pg/mL
same,induction of serum interferon-alpha,"interferon-alpha [3]; oral once per day, 0.005 and 0.05 mg/kg, Days 1, 7, 15",Interferon-alpha was induced
